Measured values reported in patent publication US20160367556A1, “Therapeutic Agent for Ocular Disease or Prophylactic Agent for Ocular Disease” (Japan Tobacco Inc., priority 2013, published 2016).
Where “and” joins values, the source holds several entries; their conditions need not be identical. Equal entries are not always repeated. Where two headings read alike, the source gives them in different places.

Assays:
[1] = tested on: VEGF-induced retinal vascular permeability; test: Retinal vascular permeability suppression by intravitreal injection in rat model where VEGF-induced retinal vascular permeability was increased; type: in vivo; settings: intravitreal 10, 30 or 100 μg/eye mixed with rat VEGF164 400 ng/eye; vitreous protein at 24 hours; FIG. 2
Method: Experiment 2. Retinal vascular permeability suppression by intravitreal injection of Compound A in rat model where VEGF-induced retinal vascular permeability was increased As experimental animals, male Brown Norway rats aged 8 weeks {CHARLES RIVER LABORATORIES JAPAN, INC.} were used. A mixture of rat VEGF164 {400 ng/eye, R&D Systems, Inc.} and Compound A (10 μg/eye, 30 μg/eye or 100 μg/eye) dissolved or suspended in a base was injected into the vitreous body of each eye of rats <Compound A-administered group>. In the vitreous body of each eye of rats of a base-administered group, a mixture of rat VEGF164 and the base of the same volume as that of the Compound A-administered group was injected. As the base, an aqueous base was used. In the vitreous body of each eye of rats of a normal control group, D-PBS (-) {Sigma-Aldrich Corporation} was injected. Each group included four rats <eight eyeballs>. At 24 hours after intravitreal injection of VEGF, rats were euthanized, and the eyeballs of the rats were enucleated while avoiding contamination with blood. […] The protein concentration in the sampled vitreous body was determined by the Bradford method. The rate of suppressing an increase of the retinal vascular permeability was calculated according to the following equation X. Rate of suppressing increase of retinal vascular permeability (%)=(PB-PX)/(PB-PA)×100 [Equation X] […]

[2] = Plasma concentration after single oral administration to rats (LC-MS); type: in vivo; settings: rat, oral 100 mg/kg single; for concentration at 0.5 h / concentration at 1 h / concentration at 2 h / concentration at 4 h / concentration at 6 h / concentration at 24 h: male, Crl:CD <SD>, plasma, po, 100 mg/kg
Method: (§1) Experiment 3. Ocular tissue distribution and systematic exposure of Compound A orally administered or intravitreally injected
(§2) As experimental animals, male Crl:CD <SD> rats aged 8 weeks {CHARLES RIVER LABORATORIES JAPAN, INC.} were used.
(§3) Compound A suspended in a 1% (w/v) methylcellulose aqueous solution was orally administered to rats at 100 mg/kg. At 0.5, 1, 2, 4, 6 and 24 hours after oral administration, plasma and neural retina were sampled, and the concentrations of Compound A in the plasma and in the neural retina were quantified by liquid chromatography mass spectrometry <LC-MS>.
(§4) Transition of plasma concentration of Compound A orally administered (100 mg/kg) was shown in Table 1, transition of neural retina concentration of Compound A orally administered (100 mg/kg) was shown in Table 2, and transition of neural retina concentration of Compound A intravitreally injected (10 μg/eye) was shown in Table 3.

[3] = Neural retina concentration after single oral administration to rats (LC-MS); type: in vivo, rat
Method: as §1, §2, §3, §4

[4] = Neural retina concentration after intravitreal injection to rats (LC-MS); type: in vivo; settings: rat, intravitreal 10 μg/eye
Method: as §1, §2
In the vitreous body of each eye of rats, Compound A dissolved or suspended in a base was injected at 10 μg/eye. At 1, 2, 4 and 24 hours after intravitreal injection, neural retina was sampled, and the concentration of Compound A in the neural retina was quantified by LC-MS. Each group included two to three rats <four to six eyeballs>.
as §4

In the case of `C[C@H]1CN(C(=O)CC#N)[C@]12CCN(c1ncnc3[nH]ccc13)C2` [Compound A, 3-[(3S,4R)-3-Methyl-6-(7H-pyrrolo[2,3-d]pyrimidin-4-yl)-1,6-diazaspiro[3.4]octan-1-yl]-3-oxopropanenitrile], the “suppression of retinal vascular permeability” value [1] is reported as “suppression of retinal vascular permeability”, the concentration at 0.5 h ([2]; 0.5 hr, average, read-out: Plasma concentration of Compound A, Average) is reported as 6320 ng/mL and the concentration at 0.5 h ([2]; 0.5 hr, individual animal, read-out: Plasma concentration of Compound A) is reported as 5810 ng/mL. The concentration at 1 h ([2]; 1 hr, average, read-out: Plasma concentration of Compound A, Average) was 8260 ng/mL, the concentration at 1 h ([2]; 1 hr, individual animal, read-out: Plasma concentration of Compound A) was 7950 ng/mL and the concentration at 2 h ([2]; 2 hr, average, read-out: Plasma concentration of Compound A, Average) was 6350 ng/mL. It also gave a concentration at 2 h ([2]; 2 hr, individual animal, read-out: Plasma concentration of Compound A) of 6520 ng/mL, a concentration at 4 h ([2]; 4 hr, average, read-out: Plasma concentration of Compound A, Average) of 4140 ng/mL and a concentration at 4 h ([2]; 4 hr, individual animal, read-out: Plasma concentration of Compound A) of 4860 ng/mL. It also gave a concentration at 6 h ([2]; 6 hr, average, read-out: Plasma concentration of Compound A, Average) of 4050 ng/mL, a concentration at 6 h ([2]; 6 hr, individual animal, read-out: Plasma concentration of Compound A) of 3040 ng/mL and a concentration at 24 h ([2]; 24 hr, average, read-out: Plasma concentration of Compound A, Average) of 20 ng/mL. The concentration at 24 h ([2]; 24 hr, individual animal, read-out: Plasma concentration of Compound A) was 30 ng/mL, the “Plasma concentration of Compound A” value ([2]; 0.5 hr, individual animal) was 6830 ng/mL and the “Plasma concentration of Compound A” value ([2]; 1 hr, individual animal) was 8570 ng/mL. For the same compound, the “Plasma concentration of Compound A” value ([2]; 2 hr, individual animal) was 6180 ng/mL, the “Plasma concentration of Compound A” value ([2]; 4 hr, individual animal) was 3410 ng/mL and the “Plasma concentration of Compound A” value ([2]; 6 hr, individual animal) was 5060 ng/mL. For the same compound, the “Plasma concentration of Compound A” value ([2]; 24 hr, individual animal) was 20 ng/mL, the “passage through the blood-retina barrier” value [3] was “passes through the blood-retina barrier” and the concentration at 0.5 h ([3]; male, Crl:CD <SD>, rat, neural retina, po, 100 mg/kg, rat, oral 100 mg/kg single, 0.5 hr, average, read-out: Neural retina concentration of Compound A, Average) was 3740 ng/mL. For the same compound, the concentration at 0.5 h ([3]; male, Crl:CD <SD>, rat, neural retina, po, 100 mg/kg, rat, oral 100 mg/kg single, 0.5 hr, individual eye, read-out: Neural retina concentration of Compound A) was 2960 ng/mL, the concentration at 1 h ([3]; male, Crl:CD <SD>, rat, neural retina, po, 100 mg/kg, rat, oral 100 mg/kg single, 1 hr, average, read-out: Neural retina concentration of Compound A, Average) was 3860 ng/mL and the concentration at 1 h ([3]; male, Crl:CD <SD>, rat, neural retina, po, 100 mg/kg, rat, oral 100 mg/kg single, 1 hr, individual eye, read-out: Neural retina concentration of Compound A) was 3930 ng/mL. The concentration at 2 h ([3]; male, Crl:CD <SD>, rat, neural retina, po, 100 mg/kg, rat, oral 100 mg/kg single, 2 hr, average, read-out: Neural retina concentration of Compound A, Average) was 2720 ng/mL, the concentration at 2 h ([3]; male, Crl:CD <SD>, rat, neural retina, po, 100 mg/kg, rat, oral 100 mg/kg single, 2 hr, individual eye, read-out: Neural retina concentration of Compound A) was 2660 ng/mL and the concentration at 4 h ([3]; male, Crl:CD <SD>, rat, neural retina, po, 100 mg/kg, rat, oral 100 mg/kg single, 4 hr, average, read-out: Neural retina concentration of Compound A, Average) was 2390 ng/mL. The concentration at 4 h ([3]; male, Crl:CD <SD>, rat, neural retina, po, 100 mg/kg, rat, oral 100 mg/kg single, 4 hr, individual eye, read-out: Neural retina concentration of Compound A) was 2300 ng/mL, the concentration at 6 h ([3]; male, Crl:CD <SD>, rat, neural retina, po, 100 mg/kg, rat, oral 100 mg/kg single, 6 hr, average, read-out: Neural retina concentration of Compound A, Average) was 1920 ng/mL and the “Neural retina concentration of Compound A” value (shortened to “Neural retina concentration”) ([3]; rat, oral 100 mg/kg single, 0.5 hr, individual eye, 100 mg/kg) was 4.42 µg/mL and 4.89 µg/mL and 2.70 µg/mL. For the same compound, the “Neural retina concentration” value ([3]; rat, oral 100 mg/kg single, 1 hr, individual eye, 100 mg/kg) was 4.48 µg/mL and 3.24 µg/mL and 3.80 µg/mL, the “Neural retina concentration” value ([3]; rat, oral 100 mg/kg single, 2 hr, individual eye, 100 mg/kg) was 2.12 µg/mL and 3.38 µg/mL and the “Neural retina concentration” value ([3]; rat, oral 100 mg/kg single, 4 hr, individual eye, 100 mg/kg) was 2.54 µg/mL and 2.29 µg/mL and 2.43 µg/mL. The “Neural retina concentration” value ([3]; rat, oral 100 mg/kg single, 6 hr, individual eye, 100 mg/kg) was 2.90 µg/mL and 2.24 µg/mL and 1.05 µg/mL and 1.47 µg/mL, the “Neural retina concentration” value ([3]; rat, oral 100 mg/kg single, 24 hr, individual eye) was “BLQ (Below the lower limit of quantification (ca. 0.16 μg/g))” and the concentration at 1 h ([4]; male, Crl:CD <SD>, neural retina, other: intravitreal injection, 10 μg/eye, 1 hr, average, read-out: Neural retina concentration of Compound A, Average) was 45000 ng/mL. The concentration at 1 h ([4]; male, Crl:CD <SD>, neural retina, other: intravitreal injection, 10 μg/eye, 1 hr, individual eye, read-out: Neural retina concentration of Compound A) was 39500 ng/mL, the concentration at 2 h ([4]; male, Crl:CD <SD>, neural retina, other: intravitreal injection, 10 μg/eye, 2 hr, average, read-out: Neural retina concentration of Compound A, Average) was 9690 ng/mL and the concentration at 4 h ([4]; male, Crl:CD <SD>, neural retina, other: intravitreal injection, 10 μg/eye, 4 hr, average, read-out: Neural retina concentration of Compound A, Average) was 1550 ng/mL. The “Neural retina concentration” value ([4]; 1 hr, individual eye) was 52.66 µg/mL and 45.53 µg/mL and 42.17 µg/mL, the “Neural retina concentration” value ([4]; 2 hr, individual eye) was 6.28 µg/mL and 13.49 µg/mL and 4.73 µg/mL and 12.71 µg/mL and 15.78 µg/mL and 5.13 µg/mL and the “Neural retina concentration” value ([4]; 4 hr, individual eye) was 2.07 µg/mL and 2.64 µg/mL and 0.27 µg/mL and 1.42 µg/mL and 1.66 µg/mL and 1.26 µg/mL. The “Neural retina concentration” value ([4]; 24 hr, individual eye) was “BLQ (Below the lower limit of quantification (ca. 0.16 μg/g))”.
